Laboratory results published in patent US11236049B2, “Amorphous and crystalline forms of IDO inhibitors” (BRISTOL-MYERS SQUIBB COMPANY, priority 2017, dated 2022).
Where two headings read alike, the source gives them in different places.

What was measured:
[1] = format: physicochemical
[2] = for AUC (Mean) / Dissolution Rate (Mean): 150 mg in 250 mL (0.60 mg/mL API equivalent), 37° C.
Description: Microdissolution Microdissolution experiments were conducted in a pIon μDiss Profiler microdissolution instrument (pION μDiss Profiler) with a fiber optic UV monitoring system, as follows: Probes: 2.5 mm probes (5 mm path length) Volume: 15 ml Stirring: 150 rpm Temperature: 37° C. […] The target doses were 150 mg in 250 mL (0.60 mg/mL API equivalent) in FaSSIF (pH 6.5) and FeSSIF (pH 5).

[3] = format: physicochemical; remark: listed apart in the source
Source text: There was no evidence of form change, dehydration, or amorphous formation after 8 weeks. There was no change in TGA at 8 weeks in all samples.

[4] = Solid state stability of Compound 1 free base Form 4; format: physicochemical
Source text: The results of those experiments are in the table, below.

[5] = pH solubility of Compound 1 MSA Salt Form 1; format: physicochemical; settings: 22 °C, aqueous buffer, thermodynamic from solid; from pH solubility profile of MSA Salt Form 1; read-out: Solubility for the free-base
Description: Measurements were taken using an Orion ATI Model 370 pH meter. […] To each vial was added 5 mL of various aqueous acidic and basic solutions. Each vial was stoppered and vortexed and sonicated to mix well. The pH of each sample was recorded. […] After 24 hours of stirring, the pH of each sample (as a suspension) was recorded. Suspensions were filtered with 0.2 micron Acrodisc syringe filters. The clear filtrates were collected and vortexed to mix well pH of each filtrated was recorded. pH of suspension and filtrate were nearly identical. A 1.0 mL aliquot of each of the filtrates 25-fold using 50% acetonitrile/50% Milli-Q water, q.w. each flask to 25 mL. […] Samples were assayed using the following HPLC method: Column: […] Mobile phase Solvent A: Water w/0.05% TFA • Solvent B: Acetonitrile w/0.05% TFA […] Column temperature: Ambient RT Detector Wavelength: 250 nm […] Working Concentration: […] Added 20 mL of 100% acetonitrile to the vial. Stoppered, vortexed, and sonicated the vial. […] Transferred the suspension to a 250 mL glass volumetric flask, and washed out the glass vial with 4×20 mL 50% acetonitrile/50% Milli-Q water, transferring each wash into the volumetric flask. All solids dissolved. Q.S. the volumetric flask to 250 mL final volume using 50% acetonitrile/50% Milli Q water, shake to give standard solution at 101.5 mcg/mL.

[6] = 25° C./60% relative humidity, 4-week
[7] = 40° C./75% relative humidity (closed), 4-week
[8] = 40° C./75% relative humidity (open), 4-week
[9] = High intensity light (HIL), 4-week
[10] = solid state stress conditions tested

**Q.** What does the source list for `CS(=O)(=O)O.C[C@@H](C(=O)Nc1ccc(Cl)cc1)[C@H]1CC[C@@H](c2ccnc3ccc(F)cc32)CC1` [Amorphous Compound 1 MSA, (R)-N-(4-chlorophenyl)-2-((1S,4S)-4-(6-fluoroquinolin-4-yl)cyclohexyl)propanamide methanesulfonate]?
**A.** form change ([1]; heat stressing at 60° C. (Example 8A)): recrystallized to Compound 1 MSA Salt Form 1; form change ([1]; heat stressing at 60° C. after 9 days): converted to Compound 1 MSA Salt Form 1

**Q.** With `C[C@@H](C(=O)Nc1ccc(Cl)cc1)[C@H]1CC[C@@H](c2ccnc3ccc(F)cc32)CC1` [Compound 1 Free Base Amorphous, (R)-N-(4-chlorophenyl)-2-((1S,4S)-4-(6-fluoroquinolin-4-yl)cyclohexyl)propanamide] as the compound, how does the “form change on heating” value ([1]; heated between 67° C. and 150° C.) read?
**A.** No crystallization was observed

**Q.** For `C[C@@H](C(=O)Nc1ccc(Cl)cc1)C1CCC(c2ccnc3ccc(F)cc23)CC1.O` (stereo partly drawn) [Compound 1 Free Base monohydrate Form 2, (R)-N-(4-chlorophenyl)-2-((1S,4S)-4-(6-fluoroquinolin-4-yl)cyclohexyl)propanamide monohydrate], which “form change on heating” value ([1]; heated for ˜2 hours) is on record?
**A.** no form change by XRPD

**Q.** What about the behaviour on heating ([1]; heating to ˜125° C.) of the same compound?
**A.** liquefy

**Q.** And the “form change on dehydration” value ([1]; overnight hold at 0% RH)?
**A.** converted to an unstable form

**Q.** What about the “form change on heating” value ([1]; ˜79 to 80° C. for 1 day or ˜75° C. under nitrogen gas flow for ˜20 hours) of the same compound?
**A.** partial conversion to other crystalline forms

**Q.** And the rate of dissolution ([2]; Example 16, FeSSIF)?
**A.** 23 µg/mL/min

**Q.** And the time chemically stable [3]?
**A.** at least 13.5 weeks

**Q.** What about the Area % [3, 6] of the same compound?
**A.** 99.90% Area %

**Q.** What about the Area % ([3]; 25° C./60% relative humidity, 8-week) of the same compound?
**A.** 99.90% Area %

**Q.** What about the Area % ([3]; 25° C./60% relative humidity, 13.5 week) of the same compound?
**A.** 99.73% Area %

**Q.** What about the Area % [3, 7] of the same compound?
**A.** 99.90% Area %

**Q.** And the Area % ([3]; 40° C./75% relative humidity (closed), 8-week)?
**A.** 99.90% Area %

**Q.** And the Area % ([3]; 40° C./75% relative humidity (closed), 13.5 week)?
**A.** 99.62% Area %

**Q.** And the Area % [3, 8]?
**A.** 99.90% Area %

**Q.** What about the Area % ([3]; 40° C./75% relative humidity (open), 8-week) of the same compound?
**A.** 99.90% Area %

**Q.** What about the Area % ([3]; 40° C./75% relative humidity (open), 13.5 week) of the same compound?
**A.** 99.63% Area %

**Q.** And the Area % ([3]; 50° C., 4-week)?
**A.** 99.90% Area %

**Q.** And the Area % ([3]; 50° C., 8-week)?
**A.** 99.04% Area %

**Q.** And the Area % ([3]; 50° C., 13.5 week)?
**A.** 99.79% Area %

**Q.** And the Area % [3, 9]?
**A.** 99.1% Area %

**Q.** What about the Area % ([3]; RT/RL (room temperature, room light), 4-week) of the same compound?
**A.** 99.90% Area %

**Q.** And the Area % ([3]; RT/RL (room temperature, room light), 8-week)?
**A.** 99.90% Area %

**Q.** What about the Area % ([3]; RT/RL (room temperature, room light), 13.5 week) of the same compound?
**A.** 99.78% Area %

**Q.** What about the “evidence of form change, dehydration, or amorphous formation” value ([3]; after 8 weeks) of the same compound?
**A.** no evidence

**Q.** And the “changes in PXRD” value ([3]; at 4 weeks or 8 weeks in all samples)?
**A.** No changes

**Q.** And the “change in TGA” value ([3]; at 8 weeks in all samples)?
**A.** no change

**Q.** For `CS(=O)(=O)O.C[C@@H](C(=O)Nc1ccc(Cl)cc1)[C@H]1CC[C@@H](c2ccnc3ccc(F)cc32)CC1.O` [Compound 1 MSA salt monohydrate Form 2, (R)-N-(4-chlorophenyl)-2-((1S,4S)-4-(6-fluoroquinolin-4-yl)cyclohexyl)propanamide methanesulfonic acid salt monohydrate], which form change ([1]; stressing at 75% relative humidity at 40 C for 6 days) is on record?
**A.** converts to Compound 1 MSA Salt Form 1 and Compound 1 MSA Salt monohydrate form 2

**Q.** What about the “dissolution rate compared with Compound 1 MSA Salt Form 1” value ([2]; Example 15, FaSSIF, statistically significant difference) of the same compound?
**A.** slightly faster

**Q.** What about the “AUC (Mean)” value ([2]; FaSSIF (pH 6.5)) of the same compound?
**A.** 14315.281 µg·min/mL

**Q.** What about the “Dissolution Rate (Mean)” value ([2]; FaSSIF (pH 6.5)) of the same compound?
**A.** 4.449 µg/mL/min

**Q.** What about the “AUC (Mean)” value ([2]; FeSSIF (pH 5)) of the same compound?
**A.** 50014.687 µg·min/mL

**Q.** And the “Dissolution Rate (Mean)” value ([2]; FeSSIF (pH 5))?
**A.** 47.996 µg/mL/min

**Q.** And the “Peak Solubility (Mean)” value ([2]; pH 5)?
**A.** 287.395 µg/mL

**Q.** What about the “Peak Solubility (Mean)” value ([2]; pH 6.5) of the same compound?
**A.** 91.325 µg/mL

**Q.** With `C[C@@H](C(=O)Nc1ccc(Cl)cc1)[C@H]1CC[C@@H](c2ccnc3ccc(F)cc32)CC1` [Compound 1 free base Form 4, (R)-N-(4-chlorophenyl)-2-((1S,4S)-4-(6-fluoroquinolin-4-yl)cyclohexyl)propanamide] as the compound, how does the form change ([1]; melt/quench experiment, XRPD showed no evidence of crystalline material) read?
**A.** resulted in a glass with a few fine, birefringent acicular particles

**Q.** And the Area % ([4]; 25° C./60% relative humidity, 2-week)?
**A.** 99.78% Area %

**Q.** What about the Area % [4, 6] of the same compound?
**A.** 99.77% Area %

**Q.** And the Area % ([4]; 40° C./75% relative humidity (closed), 2-week)?
**A.** 99.78% Area %

**Q.** And the Area % [4, 7]?
**A.** 99.71 Area %

**Q.** What about the Area % ([4]; 40° C./75% relative humidity (open), 2-week) of the same compound?
**A.** 99.79% Area %

**Q.** What about the Area % [4, 8] of the same compound?
**A.** 98.46% Area %

**Q.** And the Area % ([4]; 50° C., 2-week)?
**A.** 99.68% Area %

**Q.** What about the Area % ([4]; 50° C., 4-week) of the same compound?
**A.** 99.74% Area %

**Q.** And the Area % ([4]; High intensity light (HIL), 2-week)?
**A.** 99.77% Area %

**Q.** And the Area % [4, 9]?
**A.** 99.58% Area %

**Q.** And the Area % ([4]; RT/RL (room temperature/room light), 2-week)?
**A.** 99.75% Area %

**Q.** And the Area % ([4]; RT/RL (room temperature/room light), 4-week)?
**A.** 99.70% Area %

**Q.** What about the time chemically stable [4, 10] of the same compound?
**A.** at least 4 weeks

**Q.** And the “time for which no changes were observed” value [4, 10]?
**A.** at least 2 weeks

**Q.** Which solubility at 24 h [5] does the source give for `C[C@@H](C(=O)Nc1ccc(Cl)cc1)[C@H]1CC[C@@H](c2ccnc3ccc(F)cc32)CC1` [Compound 1, (R)-N-(4-chlorophenyl)-2-((1S,4S)-4-(6-fluoroquinolin-4-yl)cyclohexyl)propanamide] here?
**A.** 1 to 2 µg/mL
